Type in all cases: in vivo
Data set [1] relates to purple deadnettle (Lamium purpureum L; LAMPU). In words: Postemergence herbicidal activity, greenhouse, visual injury: purple deadnettle. Also noted: key: visual injury, 0–100%: 0 = no injury, 100 = complete kill. The method, then:
(§1) Evaluation of Postemergence Herbicidal Safening in Cereal Crops
(§2) Seeds of the desired test plant species were planted in Sun Gro MetroMix® 306 planting mixture, which typically has a pH of 6.0 to 6.8 and an organic matter content of about 30 percent, in plastic pots with a surface area of 103.2 square centimeters (cm^2). When required to ensure good germination and healthy plants, a fungicide treatment and/or other chemical or physical treatment was applied. The plants were grown for 7-36 days (d) in a greenhouse with an approximate 14-hour (h) photoperiod which was maintained at about 18° C. during the day and 17° C. during the night. Nutrients and water were added on a regular basis and supplemental lighting was provided with overhead metal halide 1000-Watt lamps as necessary. The plants were employed for testing when they reached the second or third true leaf stage.
(§3) Weighed amounts of esters (methyl) or salts (TEA [triethylammonium], K [potassium]) of 4-amino-3-chloro-6-(4-chloro-2-fluoro-3-methoxyphenyl)pyridine-2-carboxylic acid (Compound 1) were dissolved in a volume of 97:3 volume/volume (v/v) acetone/dimethylsulfoxide (DMSO) to obtain stock solutions. […] The concentrated stock solutions were diluted with an aqueous mixture of 1.5% v/v of Agri-dex crop oil concentrate to provide the appropriate application rates. Compound requirements are based upon a 12 mL application volume at a rate of 187 liters per hectare (L/ha). Stocks solutions of the safeners were prepared following the same procedure. Spray solutions of the safeners and experimental compound mixtures were prepared by adding the stock solutions to the appropriate amount of dilution solution to form a 12 mL spray solution with active ingredients in two-way combinations. Formulated compounds were applied to the plant material with an overhead Mandel track sprayer equipped with 8002E nozzles calibrated to deliver 187 L/ha over an application area of 0.503 square meters (m^2) at a spray height of 18 inches (43 centimeters (cm)) above average plant canopy. Control plants were sprayed in the same manner with the solvent blank.
(§4) The treated plants and control plants were placed in a greenhouse as described above and watered by sub-irrigation to prevent wash-off of the test compounds. After 20-22 d, the condition of the test plants as compared with that of the control plants was determined visually and scored on a scale of 0 to 100 percent where 0 corresponds to no injury and 100 corresponds to complete kill.
(§5) Colby's equation was used to determine the herbicidal effects expected from the mixtures (Colby, S. R. Calculation of the synergistic and antagonistic response of herbicide combinations. Weeds 1967, 15, 20-22.).
(§6) The following equation was used to calculate the expected activity of mixtures containing two active ingredients, A and B: Expected=A+B−(A×B/100)
(§7) A=observed efficacy of active ingredient A at the same concentration as used in the mixture.
(§8) B=observed efficacy of active ingredient B at the same concentration as used in the mixture.

Data set [2] relates to corn poppy (Papaver rhoeas L; PAPRH). In words: Postemergence herbicidal activity, greenhouse, visual injury: corn poppy. The method, then: as §1, §2, §3, §4, §5, §6, §7, §8
The subject of data set [3] is wild buckwheat (Polygonum convolvulus L; POLCO). In words: Postemergence herbicidal activity, greenhouse, visual injury: wild buckwheat. As to the method:
as §1, §2, §3, §4, §5, §6, §7, §8

Data set [4] has as its system bird's-eye speedwell (Veronica persica L; VERPE). In words: Postemergence herbicidal activity, greenhouse, visual injury: bird's-eye speedwell. Also noted: key: visual injury, 0–100%: 0 = no injury, 100 = complete kill. As to the method: as §1, §2, §3, §4, §5, §6, §7, §8
Data set [5] concerns Russian thistle (Salsola iberica L; SASKR). In words: Postemergence herbicidal activity, greenhouse, visual injury: Russian thistle. The arrangement: key: visual injury, 0–100%: 0 = no injury, 100 = complete kill. As to the method: as §1, §2, §3, §4, §5, §6, §7, §8
Data set [6] concerns wild pansy (Viola tricolor L; VIOTR). In words: Postemergence herbicidal activity, greenhouse, visual injury: wild pansy. The arrangement: key: visual injury, 0–100%: 0 = no injury, 100 = complete kill. The method, then: as §1, §2, §3, §4, §5, §6, §7, §8
In data set [7] the test system is chickweed (Stellaria media L; STEME). Nature of the data set: Postemergence herbicidal activity, greenhouse, visual injury: chickweed. The arrangement: key: visual injury, 0–100%: 0 = no injury, 100 = complete kill. The method, then:
as §1, §2, §3, §4, §5, §6, §7, §8

For data set [8], the system named is cleavers (Galium aparine L; GALAP). Nature of the data set: Postemergence herbicidal activity, greenhouse, visual injury: cleavers. The arrangement: key: visual injury, 0–100%: 0 = no injury, 100 = complete kill. The method, then: as §1, §2, §3, §4, §5, §6, §7, §8
Data set [9] relates to barley (Hordeum vulgare L; HORVS). Nature of the data set: Postemergence herbicidal safening, greenhouse, visual injury: barley. The method, then: as §1, §2, §3, §4, §5, §6, §7, §8
Data set [10] deals with wheat (Triticum aestivum L; TRZAS). In words: Postemergence herbicidal safening, greenhouse, visual injury: wheat. The method, then:
as §1, §2, §3, §4, §5, §6, §7, §8

Structures are written as SMILES.

In the case of `O=C(O)c1nc(C(Cl)(Cl)Cl)n(-c2ccc(Cl)cc2Cl)n1` [Fenchlorazole], the “LAMPU Ob (Observed values)” value in [1] (safener 4.4 g/ha alone), in [1] (safener 8.8 g/ha alone), in data set [1] (safener 17.5 g/ha alone) and in data set [1] (safener 35 g/ha alone) was 0 each time. The “PAPRH Ob (Observed values)” value in data set [2] (safener 4.4 g/ha alone), in data set [2] (safener 8.8 g/ha alone), in [2] (safener 17.5 g/ha alone) and in data set [2] (safener 35 g/ha alone) was 0 throughout.
On to `Cc1ccc(NC(=O)NC(C)(C)c2ccccc2)cc1` [Daimuron], for which the “LAMPU Ob (Observed values)” value in [1] (safener 4.4 g/ha alone), in data set [1] (safener 8.8 g/ha alone), in data set [1] (safener 17.5 g/ha alone) and in [1] (safener 35 g/ha alone) was 0 each time. The “PAPRH Ob (Observed values)” value in data set [2] (safener 4.4 g/ha alone), in [2] (safener 8.8 g/ha alone), in data set [2] (safener 17.5 g/ha alone) and in data set [2] (safener 35 g/ha alone) was 0 throughout.
As to `O=C1OC(=O)c2cccc3cccc1c23` [Naphthalic anhydride], the “POLCO Ob” value in [3] (applied alone, 17.5 g/ha) came to 0; in data set [3] (applied alone, 35 g/ha), 0; in data set [3] (applied alone, 70 g/ha), 0; in data set [3] (applied alone, 140 g/ha) it was 0. For the same compound, the “VERPE Ob” value in data set [4] (applied alone, 17.5 g/ha) came to 0; in data set [4] (applied alone, 35 g/ha), 0; in data set [4] (applied alone, 70 g/ha), 0; in [4] (applied alone, 140 g/ha), 0. The “SASKR Ob” value in [5] (applied alone, 17.5 g/ha) is recorded as 0; in [5] (applied alone, 35 g/ha) it was 0; in [5] (applied alone, 70 g/ha) it was 0; in data set [5] (applied alone, 140 g/ha), 0. Also, the “VIOTR Ob” value in [6] (applied alone, 17.5 g/ha) came to 0; in data set [6] (applied alone, 35 g/ha), 0; in data set [6] (applied alone, 70 g/ha) it was 0; in data set [6] (applied alone, 140 g/ha), 0. Further, the “STEME Ob” value in [7] (applied alone, 17.5 g/ha) was 0; in data set [7] (applied alone, 35 g/ha), 0; in [7] (applied alone, 70 g/ha), 0; in data set [7] (applied alone, 140 g/ha) it was 0. The “GALAP Ob” value in data set [8] (applied alone, 17.5 g/ha) came out at 0; in data set [8] (applied alone, 35 g/ha) it was 0; in [8] (applied alone, 70 g/ha), 0; in data set [8] (applied alone, 140 g/ha), 0. The “PAPRH Ob” value is recorded as 0 in [2] (applied alone, 17.5 g/ha); 0 in data set [2] (applied alone, 35 g/ha); 0 in data set [2] (applied alone, 70 g/ha); 0 in [2] (applied alone, 140 g/ha).
`O=C(C(Cl)Cl)N1CCOC12CCCCC2` [AD67, 4-(dichloroacetyl)-1-oxa-4-azaspiro[4,5]decane, reference compound]: the “POLCO Ob” value in data set [3] (applied alone at 17.5 g/ha), in data set [3] (applied alone at 35 g/ha), in [3] (applied alone at 70 g/ha) and in [3] (applied alone at 140 g/ha) was 0% each time. The “VERPE Ob” value in data set [4] (applied alone at 17.5 g/ha), in data set [4] (applied alone at 35 g/ha), in [4] (applied alone at 70 g/ha) and in data set [4] (applied alone at 140 g/ha) was 0% in each case. Besides, the “SASKR Ob” value in [5] (applied alone at 17.5 g/ha), in [5] (applied alone at 35 g/ha), in data set [5] (applied alone at 70 g/ha) and in data set [5] (applied alone at 140 g/ha) was 0% each time. The “HORVS Ob” value in [9] (applied alone at 17.5 g/ha), in data set [9] (applied alone at 35 g/ha), in data set [9] (applied alone at 70 g/ha) and in [9] (applied alone at 140 g/ha) was 0% throughout. For the same compound, the “TRZAS Ob” value in data set [10] (applied alone at 17.5 g/ha), in data set [10] (applied alone at 35 g/ha), in [10] (applied alone at 70 g/ha) and in [10] (applied alone at 140 g/ha) was 0% throughout. For the same compound, the “VIOTR Ob” value in data set [6] (applied alone at 17.5 g/ha), in data set [6] (applied alone at 35 g/ha), in [6] (applied alone at 70 g/ha) and in [6] (applied alone at 140 g/ha) was 0% throughout. In addition, the “STEME Ob” value in data set [7] (applied alone at 17.5 g/ha), in [7] (applied alone at 35 g/ha), in data set [7] (applied alone at 70 g/ha) and in data set [7] (applied alone at 140 g/ha) was 0% each time. Besides, the “GALAP Ob” value in [8] (applied alone at 17.5 g/ha), in [8] (applied alone at 35 g/ha), in data set [8] (applied alone at 70 g/ha) and in data set [8] (applied alone at 140 g/ha) was 0% throughout. For the same compound, the “PAPRH Ob” value in [2] (applied alone at 17.5 g/ha), in data set [2] (applied alone at 35 g/ha), in [2] (applied alone at 70 g/ha) and in data set [2] (applied alone at 140 g/ha) was 0% each time.
With `FC(F)(F)C(=NOCC1OCCO1)c1ccc(Cl)cc1` [Fluxofenim], the “POLCO Ob” value is 0 in [3] (applied alone, 17.5 g/ha); 0 in data set [3] (applied alone, 35 g/ha); 0 in [3] (applied alone, 70 g/ha); 0 in data set [3] (applied alone, 140 g/ha). Besides, the “VERPE Ob” value was found to be 0 in data set [4] (applied alone, 17.5 g/ha); 0 in data set [4] (applied alone, 35 g/ha); 0 in [4] (applied alone, 70 g/ha); 0 in [4] (applied alone, 140 g/ha). The “SASKR Ob” value in [5] (applied alone, 17.5 g/ha) turned out to be 0; in data set [5] (applied alone, 35 g/ha), 0; in [5] (applied alone, 70 g/ha), 0; in [5] (applied alone, 140 g/ha), 0. Besides, the HORVS Ob was 0% in data set [9] (applied alone, 17.5 g/ha); 0% in data set [9] (applied alone, 35 g/ha); 0% in data set [9] (applied alone, 70 g/ha); 0% in [9] (applied alone, 140 g/ha). The TRZAS Ob in data set [10] (applied alone, 17.5 g/ha) is 0%; in data set [10] (applied alone, 35 g/ha) it was 0%; in data set [10] (applied alone, 70 g/ha) it was 0%; in data set [10] (applied alone, 140 g/ha), 0%. For the same compound, the “VIOTR Ob” value was 0 in data set [6] (applied alone, 17.5 g/ha); 0 in data set [6] (applied alone, 35 g/ha); 0 in [6] (applied alone, 70 g/ha); 0 in data set [6] (applied alone, 140 g/ha). The “STEME Ob” value was determined as 0 in data set [7] (applied alone, 17.5 g/ha); 0 in data set [7] (applied alone, 35 g/ha); 0 in data set [7] (applied alone, 70 g/ha); 0 in data set [7] (applied alone, 140 g/ha). Further, the “GALAP Ob” value in data set [8] (applied alone, 17.5 g/ha) is 0; in [8] (applied alone, 35 g/ha), 0; in data set [8] (applied alone, 70 g/ha) it was 0; in [8] (applied alone, 140 g/ha), 0. In addition, the “PAPRH Ob” value in [2] (applied alone, 17.5 g/ha) turned out to be 0; in data set [2] (applied alone, 35 g/ha), 0; in data set [2] (applied alone, 70 g/ha) it was 0; in data set [2] (applied alone, 140 g/ha), 0.
